Tests used:
Format in all cases: physicochemical
[1] = Drug substance stability (API in closed Type I glass vials at 40° C. and 60° C.)
Method: Methodology: Approximately 100 mg of the API (Lot 009M9B058) were stored at each of 40° C. and 60° C. in closed Type I glass vials. Samples were analyzed for appearance and percent purity at T0 and after 1 week, 2 weeks and 4 weeks of storage.
Visually, there were no signs of degradation (i.e. discoloration etc.).

[2] = pH solubility study (100 mM citric acid, titrated with NaOH, shaken overnight at room temperature, filtered, HPLC); details: for Cmp. A.H2SO4 Concentration: no excess solid, not saturation solubility
Method: A pH solubility study was performed to assess the feasibility of formulating a compound having Formula (I) as a simple buffered solution at a reasonable pH for a nasal formulation.
Methodology: A compound having Formula (I) and H2SO4 solution of concentration ˜107 mg/mL in 100 mM citric acid at pH 2.5 was prepared. About 150 μL aliquots of this solution were transferred into 6 separate glass HPLC vials. All the samples, including the solution at pH 2.5, were shaken overnight at room temperature using a gyratory shaker. After shaking, the samples were evaluated visually for the presence of precipitate and were then spin filtered through 0.45 μm syringe tip filters (4 mm diameter) at 3000 rpm for 20 min. The final pH values of the filtrates were measured. The filtrates were then diluted appropriately and analyzed for compound having Formula (I). H2SO4 concentration using the HPLC assay.
Results: The pH values of the samples prior to and after shaking overnight, appearance as well as concentrations of samples are shown in Table 12.

[3] = Stability as a function of pH, narrow range (pH 2-3.6, ~10 mM citric acid and glycine buffers, 1 mg/mL); details: Target pH 2.0; 40° C. Storage 4 wk; listed as Cmp. A
Method: Accordingly, the stability of the compound was evaluated in the pH range 2-3.6.
Methodology: Buffer solutions containing ˜10 mM each of citric acid and glycine in the pH range 2-3.6 were prepared by titrating 250 mL of a single stock containing both buffer agents with 1N NaOH/1N HCl and removing 50 mL aliquots at predetermined pH values. Solutions at 1 mg/mL were prepared in the buffers by dissolving ˜25 mg of compound in ˜23 mL of a given buffer, adjusting the pH to the target and making up the volume to 25.0 mL in a volumetric flask.
Each of the buffered solutions was filtered through a […] polyether sulfone syringe filter into a volumetric flask previously rinsed with 70% ethanol and dried in a laminar flow hood. Following filtration, each buffered solution was split into 9 aliquots in 5 mL serum vials previously rinsed with 70% ethanol and dried in a laminar flow hood. Filtration and preparation of aliquots were performed in a laminar flow hood. Of the nine aliquots, three aliquots were stored at each 40° C. and 60° C., two aliquots were stored at 25° C. and one aliquot was submitted for T0 testing. Samples were evaluated for pH, assay and related substances at TO and, following 1 week, 2 weeks and 4 weeks of storage at 40° C. and 60° C. Samples stored at 25° C. served as controls to be analyzed if necessary. […]

Row | Stability of the API on storage (in words) ([1]; 4 weeks, even at 60° C.) | Purity (%) ([1]; 40° C., T = 1 week) | Purity (%) ([1]; 40° C., T = 2 week) | Purity (%) ([1]; 40° C., T = 4 week) | Purity (%) ([1]; 60° C., T = 1 week) | Purity (%) ([1]; 60° C., T = 2 week) | Purity (%) ([1]; 60° C., T = 4 week) | Purity (%) ([1]; T = 0) | Final pH after Shaking and Filtration ([2]; Target pH 2.5, Initial pH 2.51) | Cmp. A.H2SO4 Concentration ([2]; Target pH 2.5, Initial pH 2.51) | Final pH after Shaking and Filtration ([2]; Target pH 3.0, Initial pH 3.05) | Cmp. A.H2SO4 Concentration ([2]; Target pH 3.0, Initial pH 3.05) | Final pH after Shaking and Filtration ([2]; Target pH 3.5, Initial pH 3.51) | Cmp. A.H2SO4 Concentration ([2]; Target pH 3.5, Initial pH 3.51) | Final pH after Shaking and Filtration ([2]; Target pH 4.0, Initial pH 4.00) | Final pH after Shaking and Filtration ([2]; Target pH 4.5, Initial pH 4.55) | Final pH after Shaking and Filtration ([2]; Target pH 5.0, Initial pH 4.93) | Final pH after Shaking and Filtration ([2]; Target pH 5.5, Initial pH 5.63) | Assay [3] | Compound
1 | quite stable | 99.92% | 99.90% | 100.00% | 99.76% | 100.00% | 100.00% | 100.00% | 2.42 | 104.1 mg/mL | 3.00 | 99.8 mg/mL | 3.51 | 101.6 mg/mL | 3.79 | 4.37 | 4.52 | 5.02 | – | CCCNc1nc(NCCC)nc(N(C)OC)n1 [Cmp. A.H2SO4, N-(4,6-Bis-n-propylamino-[1,3,5]triazin-2-yl)-O,N-dimethyl-hydroxylamine]
2 | – | – | – | – | – | – | – | – | – | – | – | – | – | – | – | – | – | – | 0956 | CCCNc1nc(NCCC)nc(N(C)OC)n1 [Compound A, N-(4,6-Bis-n-propylamino-[1,3,5]triazin-2-yl)-O,N-dimethyl-hydroxylamine]

From patent US20230310440A1, “RESPIRATORY STIMULANT NASAL FORMULATIONS” (Enalare Therapeutics Inc., priority 2022, published 2023)
